Test results published in paper PMC5608352, “Formyl peptide derived lipopeptides disclose differences between the receptors in mouse and men and call the pepducin concept in question” (PLoS ONE, 2017).
Entries after “also recorded” stand apart in the source; their conditions may differ. No end group written: not given here. *: point of attachment. Palmitoyl = CCCCCCCCCCCCCCCC(=O)*

Experiments:
[1] = target: T1, Fpr2 (Mus musculus, UniProt O88536); test: Inhibition of F2Pal16-induced superoxide release, WT mouse neutrophils; assay type: cell-based; details: Boc2 2 μM or peptidomimetic inhibitor 1 μM (five experiments), or mF2Pal16 500 nM against F2Pal16 500 nM (three experiments); 5 min pre-incubation
T1 construct: WT mouse neutrophils (5 x 10^4 cells) were pre-incubated without (solid line) or with mF2Pal16; endogenous in cells; host or cells: bone marrow neutrophils of C57BL/6 wild-type mice, TNF-alpha primed
T1 sequence (O88536 1-351): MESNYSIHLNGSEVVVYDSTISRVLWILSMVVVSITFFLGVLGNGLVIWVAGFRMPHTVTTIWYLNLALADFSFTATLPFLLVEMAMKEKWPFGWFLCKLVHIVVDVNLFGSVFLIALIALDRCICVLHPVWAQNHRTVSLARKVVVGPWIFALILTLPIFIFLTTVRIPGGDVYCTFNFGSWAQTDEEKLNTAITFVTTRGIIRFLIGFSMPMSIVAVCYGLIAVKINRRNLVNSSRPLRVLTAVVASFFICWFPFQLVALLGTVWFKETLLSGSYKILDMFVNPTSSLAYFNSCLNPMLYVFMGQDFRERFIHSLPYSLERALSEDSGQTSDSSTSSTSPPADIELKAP
From the text: Mice (8–12 weeks of age) were killed by cervical dislocation, the femurs and tibias were removed and freed of soft tissue attachments, and the extreme distal tip of each extremity was cut off. KRG without Ca^2+ and Mg^2+ (KRG-) was forced through the bone by using a 1-mL syringe with a 27-gauge needle. After dispersing cell clumps and removing the debris, the bone marrow granulocytes were isolated according to an earlier described procedure with some modifications. Briefly, a cell suspension in 2 mL of KRG- was laid on top of a three-layer Percoll gradient (1.095, 1.085, and 1.070 g/mL). The density of each Percoll solution was verified using density marker beads. After centrifugation at 500 × g for 30 min at 4°C in a swinging bucket rotor, the lowest band (1.085/1.095 g/mL interface) was collected as the neutrophil fraction. After washing with KRG-, remaining red blood cells were eliminated by hypotonic lysis. After a final wash with KRG-, the cells were resuspended in KRG. The cell number and population of bone marrow cells were determined by flow cytometry based on forward scatter (size) and side scatter (density) localization.
(§1) NADPH-oxidase activity was determined using an isoluminol and HRP-enhanced chemiluminescence (CL) system that allow for the determination of superoxide production. The CL activity was measured in a six-channel Biolumat LB 9505 apparatus (Berthold Co., Wildbad, Germany), using disposable 4-mL polypropylene tubes with 1 mL reaction mixture. […] The light emission was recorded continuously over time and presented as superoxide production (in arbitrary light units, cpm x10^-6) as a function of time (min). The activity before stimulus addition was recorded as basal line and this activity was not changed in vehicle control samples. […]
Data analysis was performed using Graph Pad Prism 7.0. The EC50/IC50 values were determined from experiments in which the activities were normalized to the response induced by maximal response or induced by agonist in the absence of inhibitor. […]

[2] = tested on: Fpr2^-/- neutrophils; test: Inhibition of F2Pal16-induced superoxide release, Fpr2^-/- mouse neutrophils; assay type: cell-based; details: Boc2 2 μM, 5 min pre-incubation; F2Pal16 500 nM
From the text: (§2) C57BL/6 wild-type mice were purchased from Charles River Laboratories and Fpr2^−/− mice generated as described previously, were generously provided by Dr Ji Ming Wang, Frederick National Laboratory for Cancer Research, USA. Mice were kept under standard temperature and light conditions and fed laboratory chow and water ad libitum, at the Department of Rheumatology and Inflammation Research, University of Gothenburg. Sex matched WT and Fpr2^-/- animals (age 8–10 weeks) were used to isolated bone marrow derived neutrophils. The studies performed were approved by the Ethical Committee for Animal Experimentation, Göteborg, Sweden.
(§3) Mice (8–12 weeks of age) were killed by cervical dislocation, the femurs and tibias were removed and freed of soft tissue attachments, and the extreme distal tip of each extremity was cut off. […] The cell number and population of bone marrow cells were determined by flow cytometry based on forward scatter (size) and side scatter (density) localization.
(§4) NADPH-oxidase activity was determined using an isoluminol and HRP-enhanced chemiluminescence (CL) system that allow for the determination of superoxide production. The CL activity was measured in a six-channel Biolumat LB 9505 apparatus (Berthold Co., Wildbad, Germany), using disposable 4-mL polypropylene tubes with 1 mL reaction mixture. […]

[3] = tested on: Fpr1; test: Inhibition of fMIFL-induced superoxide release, Fpr2^-/- mouse neutrophils; assay type: cell-based; details: Boc2 2 μM, 5 min pre-incubation; fMIFL 10 nM
From the text: as §2, §3, §4

[4] = target: T1, Fpr2; parameters: method as in PMID 27614010; details: ref [12]; cited from earlier work
From the text: When looking at the FPRs in different species it is clear that the receptor family has a complex evolutionary history, as illustrated by the fact that the number of genes in the family vary markedly in mouse and man. […] As different mouse models constitute important tools for translational studies aiming to understa ... || Genetically modified mouse strains and mouse disease models provide excellent tools to study the function of neutrophil FPRs in vivo. Such studies have indicated Fprs (in particular Fpr2) as important regulators of the physiological processes leading to resolution of inflammation. However, a direct translation of mouse data to human studies is hampered due to the distant phylogenetic relationship between mouse and human receptors. In addition to the different number of Fpr genes in mice and humans and an incomplete understanding of the evolutionary relationship between human FPRs ...

[5] = tested on: FPR2; test: Inhibition of F2Pal16 (FPR2 activating pepducin)-induced superoxide release, human neutrophils; assay type: cell-based; details: PBP10 1 μM or CysH 1 μM, 5 min pre-incubation; F2Pal16 1 μM; five experiments
From the text: Human peripheral blood neutrophils were isolated from buffy coats from healthy blood donors using dextran sedimentation and Ficoll-Paque gradient centrifugation as described. The remaining erythrocytes were disrupted by hypotonic lysis and the neutrophils were washed twice, suspended in KRG and, stored on melting ice until use. This isolation process permits cells to be purified with minimal granule mobilization. The buffy coats were obtained from the blood bank at Sahlgrenska University Hospital. Ethics approval was not needed since the buffy coats were provided anonymously and could not be traced back to a specific individual. This is in line with Swedish legislation section code 4§ 3p SFS 2003:460 (Lag om etikprövning av forskning som avser människor).
as §1

[6] = target: formyl peptide receptor Fpr2, mouse (mouse (endogenous in bone marrow neutrophils)) (UniProt O88536)
[7] = target: formyl peptide receptor Fpr2, mouse (mouse (endogenous in bone marrow neutrophils)) (UniProt O88536); remark: listed apart in the source

Q: For Boc-FLFLF [Boc2, Fpr1 antagonist], which “effect of inhibitor on F2Pal16 response, WT mouse neutrophils” value [1] is on record?
A: The value was “no effect on the pepducin response”.

Q: What about the “effect of inhibitor on F2Pal16 response, Fpr2^-/- neutrophils” value [2] of the same molecule?
A: The value was “insensitive to Boc2; also recorded: no effect on the pepducin response”.

Q: And the “effect of inhibitor on fMIFL response, Fpr2^-/- neutrophils” value [3]?
A: Its value is “completely abolished”.

Q: Which “activity at mouse Fprs (earlier work)” value [4] does the source give for Cyclosporin H here?
A: The value was “lack effects on their mouse counterparts”.

Q: What about the “effect of inhibitor on F2Pal16 response, human neutrophils” value [5] of the same molecule?
A: The value was “not by the FPR1 inhibitor cyclosporine H”.

Q: Which EC50 of superoxide release by wild-type mouse neutrophils, dose-response of F1Pal16 [6] does the source give for Palmitoyl-KIHKQGLIKSSRPLRV [F1Pal16 pepducin (Pal-…)] here?
A: The EC50 of superoxide release by wild-type mouse neutrophils, dose-response of F1Pal16 was 300 nM.

Q: Which EC50 of superoxide release by wild-type mouse neutrophils, dose-response of F2Pal16 (maximum at 1 uM) [7] does the source give for Palmitoyl-KIHKKGMIKSSRPLRV [F2Pal16 pepducin (Pal-…)] here?
A: The EC50 of superoxide release by wild-type mouse neutrophils, dose-response of F2Pal16 (maximum at 1 uM) was 300 nM.
